Results published in US8802702B2, “Compounds for reducing drug resistance and uses thereof” (The General Hospital Corporation, priority 2009, dated 2014).
Where two headings read alike, the source gives them in different places.

Legend:
SKOV-3TR cells = assay: Reversal of drug resistance, cytotoxicity (MTT) assay in SKOV-3TR; format: cell-based; details: for IC50: Homo sapiens, SKOV3TR
Method: FIGS. 1 (a-b) are graphs that depict the effects of NSC23925 on drug sensitivity in ovarian cancer cells; 1(a) depicts the effects of NSC23925 on sensitive (SKOV-3) and resistant (SKOV-3TR) cells; 1(b) depicts the effects of NSC23925 on sensitive (OVCAR8) and resistant (OVCAR8TR) cells. […] The relative sensitivity of each line to paclitaxel was determined by MTT assay, as described below in the Examples section, 6 days post treatment. […]
Drug cytotoxicity was assessed in vitro using the MTT assay. SKOV-3 and SKOV-3TR cells were used herein. Briefly, 2×10^3 cells per well were plated in 96-well plates in culture medium (RPMI 1640 supplemented with 10% fetal bovine serum and penicillin/streptomycin) containing increasing concentrations of drug. […] The resulting formazan product was dissolved with acid-isopropanol and the absorbance at a wavelength of 490 nm (A490) was read on a SPECTRAmax® Microplate Spectrophotometer (Molecular Devices, Sunnyvale, Calif.). The absorbance values were normalized by assigning the value of the control line in the medium without drug to 1.0 and the value of the no cell control to 0. Experiments were performed in triplicate.

[1] = tested on: Pgp1 mediated transport in SKOV-3TR cells; assay: Duration of MDR reversal after incubation and washout; format: cell-based, human; details: overnight exposure 1 μM
Method: Drug cytotoxicity was determined by MTT assay.
The cells were then incubated for 4 days with addition of varying concentrations of paclitaxel. Final results were determined by MTT assay as described above.

OVCAR8TR cells = assay: Reversal of drug resistance, cytotoxicity (MTT) assay in OVCAR8TR; format: cell-based, human; details: Paclitaxel
Method: FIGS. 1 (a-b) are graphs that depict the effects of NSC23925 on drug sensitivity in ovarian cancer cells; 1(a) depicts the effects of NSC23925 on sensitive (SKOV-3) and resistant (SKOV-3TR) cells; 1(b) depicts the effects of NSC23925 on sensitive (OVCAR8) and resistant (OVCAR8TR) cells. Cells were treated with the paclitaxel and NSC23925 in RPMI1640 complete media at the indicated concentrations. The relative sensitivity of each line to paclitaxel was determined by MTT assay, as described below in the Examples section, 6 days post treatment. A: Reversal of paclitaxel resistance by NSC23925 in SKOV-3TR cells. B: Reversal of paclitaxel resistance by NSC23925 in OVCAR8TR cells.
Drug cytotoxicity was assessed in vitro using the MTT assay. SKOV-3 and SKOV-3TR cells were used herein. Briefly, 2×10^3 cells per well were plated in 96-well plates in culture medium (RPMI 1640 supplemented with 10% fetal bovine serum and penicillin/streptomycin) containing increasing concentrations of drug. After 7 days of culture, 10 μl MTT (5 mg/ml in PBS, obtained from Sigma) were added to each well and the plates were incubated for 4 h. The resulting formazan product was dissolved with acid-isopropanol and the absorbance at a wavelength of 490 nm (A490) was read on a SPECTRAmax® Microplate Spectrophotometer (Molecular Devices, Sunnyvale, Calif.). The absorbance values were normalized by assigning the value of the control line in the medium without drug to 1.0 and the value of the no cell control to 0. Experiments were performed in triplicate.

[2] = tested on: Pgp1 expression in SKOV-3TR cells; assay: Pgp1 expression by Western blot; format: cell-based, human; details: NSC23925 up to 10 μM for 48 h
[3] = biological target: purified recombinant human Pgp1 membrane protein (Homo sapiens, UniProt P08183)
Chain of purified recombinant human Pgp1 membrane protein (P08183 whole entry): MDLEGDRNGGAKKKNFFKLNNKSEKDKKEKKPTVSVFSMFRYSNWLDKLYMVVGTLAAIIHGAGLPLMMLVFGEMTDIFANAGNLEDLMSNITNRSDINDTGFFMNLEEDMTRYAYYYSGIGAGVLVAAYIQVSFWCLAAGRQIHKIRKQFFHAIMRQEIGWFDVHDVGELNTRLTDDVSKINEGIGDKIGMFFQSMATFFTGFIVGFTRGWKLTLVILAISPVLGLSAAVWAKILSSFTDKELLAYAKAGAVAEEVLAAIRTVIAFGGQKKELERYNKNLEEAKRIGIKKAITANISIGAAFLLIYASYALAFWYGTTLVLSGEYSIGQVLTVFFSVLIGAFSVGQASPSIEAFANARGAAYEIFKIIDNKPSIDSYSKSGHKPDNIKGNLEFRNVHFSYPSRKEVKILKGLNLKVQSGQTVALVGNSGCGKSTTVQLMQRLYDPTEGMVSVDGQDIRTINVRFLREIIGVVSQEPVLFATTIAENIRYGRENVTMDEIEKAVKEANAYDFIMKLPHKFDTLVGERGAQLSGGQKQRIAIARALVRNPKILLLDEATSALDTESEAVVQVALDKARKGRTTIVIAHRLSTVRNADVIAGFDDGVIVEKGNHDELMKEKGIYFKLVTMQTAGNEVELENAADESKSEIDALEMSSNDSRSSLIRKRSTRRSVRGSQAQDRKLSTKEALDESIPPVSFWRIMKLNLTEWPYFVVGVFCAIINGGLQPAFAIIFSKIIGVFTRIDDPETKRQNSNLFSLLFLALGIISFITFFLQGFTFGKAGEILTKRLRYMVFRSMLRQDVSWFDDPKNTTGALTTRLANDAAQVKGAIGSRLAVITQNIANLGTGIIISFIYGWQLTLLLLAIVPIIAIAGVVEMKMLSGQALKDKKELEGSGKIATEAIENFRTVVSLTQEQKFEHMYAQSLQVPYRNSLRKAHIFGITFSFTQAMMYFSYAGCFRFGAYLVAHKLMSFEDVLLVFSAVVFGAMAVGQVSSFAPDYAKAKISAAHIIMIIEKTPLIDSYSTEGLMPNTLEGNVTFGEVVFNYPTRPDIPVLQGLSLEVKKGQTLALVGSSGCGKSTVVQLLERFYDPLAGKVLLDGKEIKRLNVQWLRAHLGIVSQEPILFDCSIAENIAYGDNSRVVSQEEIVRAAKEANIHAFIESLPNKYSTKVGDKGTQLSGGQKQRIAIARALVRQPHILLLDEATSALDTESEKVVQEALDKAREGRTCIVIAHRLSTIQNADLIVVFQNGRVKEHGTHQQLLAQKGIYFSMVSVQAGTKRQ
Method: Luminescence was read on a BMG LABTECH Polarstar Optima Luminometer. The decrease in luminescence of untreated samples compared to samples plus Na3VO4(ARLUbasal) represents basal Pgp1 ATPase activity. […] E: Effect of NSC23925 on expression of Pgp1 in paclitaxel resistant cells. The paclitaxel resistant cell line SKOV-3TR was treated with different concentration of NSC23925 for 48 h. Equal amounts (20 μg protein) of total cell lysates were used for each sample. Pgp1 expression was determined by Western blot as described in the Examples section below.
The Pgp-Glo™ Assay Systems (Promega) provide the necessary reagents for performing luminescent P-glycoprotein (Pgp)-ATPase assays. The ATPase assay provides a rapid, […], compound-independent measure of the concentration-dependence of any interaction of a drug with Ppg1. […] Luminescence was read on a BMG LABTECH Polarstar Optima Luminometer. The decrease in luminescence of NT samples compared to samples plus Na3VO4 (ΔRLUbasal) represents basal Pgp-ATPase activity.
Pgp-ATPase assay is a valuable screening tool for determining if a drug interacts with Pgp.

COc1ccc(-c2cc(C(O)C3CCCCN3)c3ccccc3n2)cc1 (centres unmarked) [NSC23925, (2-(4-methoxyphenyl)quinolin-4-yl)(piperidin-2-yl)methanol]
fold-reversal of drug resistance, SKOV-3TR (SKOV-3TR cells; Doxorubicin, add NSC23925 0.1 μM): (1.4) fold | fold-reversal of drug resistance, SKOV-3TR (SKOV-3TR cells; Doxorubicin, add NSC23925 0.5 μM): (3.3) fold | fold-reversal of drug resistance, SKOV-3TR (SKOV-3TR cells; Doxorubicin, add NSC23925 1 μM): (11.5) fold | fold-reversal of drug resistance, SKOV-3TR (SKOV-3TR cells; ET-743, add NSC23925 0.1 μM): (0.8) fold | fold-reversal of drug resistance, SKOV-3TR (SKOV-3TR cells; ET-743, add NSC23925 0.5 μM): (1) fold | fold-reversal of drug resistance, SKOV-3TR (SKOV-3TR cells; ET-743, add NSC23925 1 μM): (1) fold | IC50 (SKOV-3TR cells; Doxorubicin, add NSC23925 0.1 μM, read-out: SKOV-3TR IC50 of Doxorubicin): 16500 ± 210 nM | IC50 (SKOV-3TR cells; Doxorubicin, add NSC23925 0.5 μM, read-out: SKOV-3TR IC50 of Doxorubicin): 6780 ± 160 nM | IC50 (SKOV-3TR cells; Doxorubicin, add NSC23925 1 μM, read-out: SKOV-3TR IC50 of Doxorubicin): 1940 ± 220 nM | IC50 (SKOV-3TR cells; ET-743, add NSC23925 0.1 μM, read-out: SKOV-3TR IC50 of ET-743): 5 ± 2 nM | IC50 (SKOV-3TR cells; ET-743, add NSC23925 0.5 μM, read-out: SKOV-3TR IC50 of ET-743): 4 ± 1 nM | IC50 (SKOV-3TR cells; ET-743, add NSC23925 1 μM, read-out: SKOV-3TR IC50 of ET-743): 4 ± 1 nM | IC50 (SKOV-3TR cells; PM00104, add NSC23925 0.1 μM, read-out: SKOV-3TR IC50 of PM00104): 5 ± 2 nM | IC50 (SKOV-3TR cells; PM00104, add NSC23925 0.5 μM, read-out: SKOV-3TR IC50 of PM00104): 7 ± 1 nM | IC50 (SKOV-3TR cells; PM00104, add NSC23925 1 μM, read-out: SKOV-3TR IC50 of PM00104): 5 ± 2 nM | IC50 (SKOV-3TR cells; Paclitaxel, add NSC23925 0.1 μM, read-out: SKOV-3TR IC50 of Paclitaxel): 302 ± 56 nM | IC50 (SKOV-3TR cells; Paclitaxel, add NSC23925 0.5 μM, read-out: SKOV-3TR IC50 of Paclitaxel): 132 ± 47 nM | IC50 (SKOV-3TR cells; Paclitaxel, add NSC23925 1 μM, read-out: SKOV-3TR IC50 of Paclitaxel): 37 ± 28 nM | fold-reversal of drug resistance, SKOV-3TR (SKOV-3TR cells; PM00104, add NSC23925 0.1 μM): (1.2) fold | fold-reversal of drug resistance, SKOV-3TR (SKOV-3TR cells; PM00104, add NSC23925 0.5 μM): (0.9^ fold | fold-reversal of drug resistance, SKOV-3TR (SKOV-3TR cells; PM00104, add NSC23925 1 μM): (1.2) fold | fold-reversal of drug resistance, SKOV-3TR (SKOV-3TR cells; Paclitaxel, add NSC23925 0.1 μM): (1.03) fold | fold-reversal of drug resistance, SKOV-3TR (SKOV-3TR cells; Paclitaxel, add NSC23925 0.5 μM): (2.4) fold | fold-reversal of drug resistance, SKOV-3TR (SKOV-3TR cells; Paclitaxel, add NSC23925 1 μM): (8.4) fold | Duration of inhibition of Pgp1 mediated transport after wash-out [1]: at least 4 days | IC50 (OVCAR8TR cells; Homo sapiens, add NSC23925 0.1 μM, read-out: OVCAR8TR IC50 of Paclitaxel): 127 ± 27 nM | fold-reversal of drug resistance, OVCAR8TR (OVCAR8TR cells; add NSC23925 0.5 μM): (4.7) fold | Expression level of Pgp1 [2]: not affected | Stimulation of Pgp-ATPase activity [3]: > 30%
